One compound from patent US20250282819A1, “MITOCHONDRIA-[…] PEPTIDE THAT CAN BE […] DELIVERED AT NANOMOLAR CONCENTRATION, AND USE THEREOF” (CAMP THERAPEUTICS INC., priority 2021, published 2025) can be followed below.

Entries after “also recorded” stand apart in the source; their conditions may differ. Where a SMILES comes first, the peptide text is derived from it.

Data set [1] is described as follows: Oligomerization tendency by HPLC retention time at 40 and 5° C. It is filed as physicochemical. As to conditions: 10 μl of 0.2 mM peptide. As to the method:
Specifically, 10 μl of each peptide solution at 0.2 mM was injected into HPLC, and the time at which the peptide was detected (RT) was measured at 40° C. and 5° C., respectively. Here, the stationary phase and mobile phase conditions of the HPLC were set using well-known methods. In general, the better the oligomer is formed, the detection time becomes longer at 40° C., which is a relatively higher temperature, thereby resulting in larger ΔΔRT that is a difference from the value measured at 5° C.

Data set [2] concerns HeLa cells. Kind of data set: Mitochondria-targeting ability by mitochondrial fractionation. It is filed as cell-based. As to conditions: EC50 concentration. How it is done: To determine at what rate the dimeric bundle peptides according to the present disclosure target mitochondria, mitochondrial fractionation was performed according to the method described in Experimental Example 4. […] Then, the cells were harvested and fractionation was performed.
Cell-penetrating ability was performed according to the method described in Experimental Example 3, and mitochondria-targeting ability was assessed by mitochondrial fractionation according to the method described in Experimental Example 4. In addition to SS-31 as a conventional peptide, a mitochondrial-penetrating peptide of Kelly's group (MPP1a; see Horton, Kristin L et al. “Mitochondria-penetrating peptides.” Chemistry & biology vol. 15, 4 (2008): 375-82) was used as an additional comparison group. The amino acid sequence of MPP1a is as follows: X(dR)XKX(dR)XK (where X is cyclohexylalanine, dR is D-arginine, and K is lysine).
Intracellular distribution of peptides was detected using the mitochondria isolation method. […] The cells were harvested, washed with cold PBS, and suspended in cold IB (30 mM Tris-HCl, pH 7.4; 225 mM mannitol; 75 mM sucrose; and 0.1 mM EGTA). […] Lysed cells were monitored under a light microscope. […] The fluorescence intensity of each fraction was measured by using a microplate reader [TECAN, Switzerland; excitation (Ex)/emission (Em)=510/570 nm].

Data set [3] deals with HeLa cells. As to the kind of experiment: Preferential binding to CCCP-damaged mitochondria, confocal microscopy. The class given is cell-based. The following applies: 100 nM 3 hours, 20 μM CCCP.
Method: To damage mitochondria, treatment with carbonyl cyanide m-chlorophenyl hydrazone (CCCP) at a concentration of 20 μM was performed for 30 minutes.
For microscopic observation, HeLa cells were cultured in glass-bottom dishes (SPL, 200350, Korea). The cells were then treated with peptides for 3 hours and stained with MitoTracker™ (Thermo Fisher Scientific, A1372, USA; 100 nM, 1 hr), nonyl acridine orange (NAO; Thermo Fisher Scientific, A1372; 100 nM, 1 hr), Hoechst 33342 (1 g/mL, 20 min), CellLight™ early endosomes-GFP (Thermo Fisher Scientific, C10586; 2 L/10,000 cells, 16 hr), and/or LysoTracker™ (Thermo Fisher Scientific, L7525; 50 nM, 30 min). The cells were then rinsed with PBS and HBSS was added thereto. Images of the stained cells were obtained using a microscope (Zeiss LSM 880 and ELYRA PS.1). To generate ultra-high resolution images, a structured illumination process was performed with ZEN Black software. Pearson r values were calculated by using ImageJ software.
For data set [4], the system named is HeLa cells. Kind of data set: ATP levels in damaged cells pretreated with peptide. The class given is cell-based. As to conditions: HeLa cells, 10 or 30 nM; 1 μM antimycin A or 1 mM H2O2. As to the method:
The relative ATP levels of cells were compared by fluorescence intensity according to the method described in Experimental Example 8, and mitochondrial damage was induced by treatment with two different mitochondrial damaging agents (1 μM of antimycin A or 1 mM of H2O2).
Cellular ATP levels were assessed using an ATP detection kit (Abcam, ab113849, USA) according to the manufacturer's instructions. Fluorescence luminescence was measured with a microplate reader (Promega, Glomax 96 microplate luminometer, USA).

Data set [5] concerns HeLa cells. Kind of data set: Cristae protecting ability by TEM. The class given is cell-based. The following applies: 50 or 100 nM 2 hours, then 0.5 mM H2O2 2 hours. The source says:
In order to determine the mode of action of the peptide according to the disclosure, attenuation of cristae number in mitochondria was examined in relation to impaired mitochondrial function caused by H2O2 treatment. In other words, it was investigated whether promotion of normal mitochondrial function caused by CMP3013 was related to preservation of cristae structure. To evaluate this protective effect, transmission electron microscopy (TEM) images were used to observe changes in the shape and number of cristae in damaged HeLa cells in the presence or absence of CMP3013.
1.8×10^6 HeLa cells were fixed with modified Karnovsky fixative [2% paraformaldehyde and 2% glutaraldehyde dissolved in […]] at 4° C. for 3 hours. A sample was washed three times with […] sodium cacodylate buffer (pH 7.2) at 4° C. for 10 minutes, and then post-fixed at 4° C. for 2 hours with 1% osmium tetroxide dissolved in […] sodium cacodylate buffer (pH 7.2). The sample was then washed twice briefly with distilled water. Subsequently, the sample was then en bloc stained with 0.5% uranyl acetate at 4° C. overnight. […]

The nature of data set [6]: Membrane potential restoring ability, JC-1, comparison of SS-31 and CMP3013. The class given is cell-based. The following applies: 1 mM H2O2; 10 or 30 nM. As to the method:
For comparison of efficacy of the two peptides on restoration of mitochondrial function, SS-31 and CMP3013 were tested for their effect on membrane potential. The change in mitochondrial membrane potential was measured as a fluorescence ratio of JC-1 according to the method described in Experimental Example 8, and 1 mM of H2O2 was used as a mitochondrial damaging agent.

In the next data set the test system is C57BL/6 mice. As to the kind of experiment: TAA-induced acute liver failure model.
Setting [7] is: 1 mg/kg intravenous x3, TAA 100 mg/kg Day 5, serum Day 6.
[8] abbreviates: mice, 1 mg/kg intravenous, Days 0, 2, 4.

Method for C57BL/6 mice: Serum samples were obtained from blood collected from the heart on Day 6, and the samples were analyzed using a hematology analyzer (Hitachi Chemical Industries, Ltd., Japan). Blood AST (aspartate aminotransferase), ALT (alanine aminotransferase), and ALP (alkaline phosphatase) were measured and evaluated as liver injury markers.
Serum samples were obtained on the seventh day (Day 7) and analyzed using a hematology analyzer. Blood AST (aspartate aminotransferase), ALT (alanine aminotransferase), and ALP (alkaline phosphatase) were measured and evaluated as liver injury markers.

`CC(=O)N[C@@H](CC1CCCCC1)C(=O)N[C@H]1CSSC[C@@H](C(=O)N[C@@H](CCCNC(=N)N)C(N)=O)NC(=O)[C@H](CC2CCCCC2)NC(=O)[C@H](CCCNC(=N)N)NC(=O)[C@H](CCCNC(=N)N)NC(=O)[C@H](CC2CCCCC2)NC(=O)[C@H](CC(C)C)NC(=O)[C@H](CCCNC(=N)N)NC(=O)[C@@H](NC(=O)[C@H](CC2CCCCC2)NC(C)=O)CSSC[C@@H](C(=O)N[C@@H](CCCNC(=N)N)C(N)=O)NC(=O)[C@H](CC2CCCCC2)NC(=O)[C@H](CCCNC(=N)N)NC(=O)[C@H](CCCNC(=N)N)NC(=O)[C@H](CC2CCCCC2)NC(=O)[C@H](CC(C)C)NC(=O)[C@H](CCCNC(=N)N)NC1=O` [CMP3013] (HELM PEPTIDE1{[ac].[Cha].C.R.L.[Cha].R.R.[Cha].C.R.[am]}|PEPTIDE2{[ac].[Cha].C.R.L.[Cha].R.R.[Cha].C.R.[am]}$PEPTIDE1,PEPTIDE2,3:R3-10:R3|PEPTIDE1,PEPTIDE2,10:R3-3:R3$$$V2.0): the “Oligomerization tendency (RT at 40-5° C.) ΔΔRT” value in data set [1] was found to be 2.683 min. For the same compound, the “mitochondrial/cytoplasmic abundance ratio (M/C ratio)” value with HeLa cells [2] was 4.1. Besides, in the data set with HeLa cells [2] (3 hours), the “rank of percentage in the mitochondrial fraction” value is given as “highest percentage in the mitochondrial fraction”. Further, the “targeting of damaged mitochondria” value in the data set on HeLa cells [3] was “moves into damaged mitochondria; also recorded: preferentially target damaged mitochondria”. For the same compound, the “ATP production promoting ability” value in the data set with HeLa cells [4] is listed as “promoting resumption of ATP production”. For the same compound, the “number of cristae structures (TEM)” value with HeLa cells [5] is on record as “same number of normal cristae structures as in the control group with no treatment”. In addition, in data set [6], the “mitochondrial membrane potential (Δψm), JC-1 ratio” value was “increased mitochondrial membrane potential”. For the same compound, in the data set on C57BL/6 mice (1 mg/kg intravenous x3), the “ALP decrease as compared with the TAA-administered group” value was determined as 19% and the “AST reduction as compared with the group having received TAA alone” value amounted to 35%. Besides, in the data set on C57BL/6 mice (setting [7]), the “blood ALP” value worked out at 462.00±81.10 U/L, the “blood ALT” value is recorded as 332.60±86.31 U/L and the “blood AST” value worked out at 316.40±52.65 U/L. In the data set on C57BL/6 mice (intraperitoneal 1, 5, or 10 mg/kg), the “dose dependence of AST and ALT decrease” value is reported as “dose-dependent manner”. Further, the “blood AST, ALT, and ALP” value in the data set on C57BL/6 mice (intraperitoneal x3, TAA 100 mg/kg Day 5, serum Day 7) was “all significantly reduced”. For the same compound, in the data set with C57BL/6 mice (setting [8]), the adverse events result is given as “no adverse events occurred” and the mortality entry is reported as “no animals died”. In addition, in the data set on C57BL/6 mice (mice, TAA and/or CMP3013), the weight loss result is “no weight loss was observed”.
